Data on one compound can be found in paper PMC5095285, “The fungal-specific β-glucan-binding lectin FGB1 alters cell-wall composition and suppresses glucan-triggered immunity in plants” (Nature Communications, 2016).

The structures appear in SMILES notation.

The test has as its target T1, FGB1 (Serendipita indica, UniProt G4TDB9).
T1 construct: gene PIIN_03211; native secreted mature protein purified from P. indica culture filtrate, signal peptide removed; precursor 104 residues; 6,219 Da, non-glycosylated, four disulfide bridges; no tag
The test is described as follows: isothermal titration calorimetry (VP-ITC). The conditions noted are these: in water, 20 °C; single-site model, N=0.854±0.243; printed error exceeds the value (likely exponent misprint); read-out: K (converted). The class given is binding. The source says:
isothermal titration calorimetry (VP-ITC) on FGB1 | The titration of gentiobiose to FGB1 was fitted to a single-side-binding model
For orientation: ITC needs no label: the signal is the heat of the interaction.

T1 sequence (G4TDB9 entry or part of it): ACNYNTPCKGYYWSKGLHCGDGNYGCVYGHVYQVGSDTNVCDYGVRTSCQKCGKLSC

As to `OC[C@H]1O[C@@H](OC[C@H]2OC(O)[C@H](O)[C@@H](O)[C@@H]2O)[C@H](O)[C@@H](O)[C@@H]1O` (stereo partly shown) [gentiobiose], the Kd was 11.4 µM.
